One test concerns the target T1, Factor VIIa (Homo sapiens, UniProt P08709).
T1 construct: purchased Haemochrom Diagnostica GmbH (Essen, D)
T1 sequence (P08709 213-466 limits assumed): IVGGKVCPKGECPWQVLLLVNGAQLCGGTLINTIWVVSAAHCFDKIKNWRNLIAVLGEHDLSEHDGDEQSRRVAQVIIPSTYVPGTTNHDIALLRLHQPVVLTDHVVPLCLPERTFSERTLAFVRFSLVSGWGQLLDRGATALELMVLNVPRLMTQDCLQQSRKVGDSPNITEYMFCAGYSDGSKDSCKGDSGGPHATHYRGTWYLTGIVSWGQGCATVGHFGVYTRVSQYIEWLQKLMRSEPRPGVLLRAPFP
T1 sequence (P08709 61-212 partner limits assumed): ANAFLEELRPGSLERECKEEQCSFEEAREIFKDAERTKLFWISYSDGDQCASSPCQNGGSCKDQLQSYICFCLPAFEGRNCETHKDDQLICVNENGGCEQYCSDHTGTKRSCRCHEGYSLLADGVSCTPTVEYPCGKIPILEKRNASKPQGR
The test can be described thus: Determination of Ki values, chromogenic substrate, Dixon evaluation: Factor VIIa. It counts as biochemical. The note with it: 25° C., tris buffer pH 8.0, substrate CH3SO2-D-phe-Gly-Arg-pNA. The source says:
(§1) The inhibitors used here are the commercially available exemplary inhibitors Pefabloc tPA/Xa (2,7-bis(4-amidinobenzylidene)-cyclopeptanone-(1), Pentapharm Ltd. Basel, Switzerland), CJ-FXa (benzylsulphonyl-D-arginyl-glycyl-4-amidinobenzylamide, Haemochrom GmbH, Essen, Germany) and CJ-PK (benzylsulphonyl-D-seryl-carbobenzoxylsyl-4-amidinobenzylamide, Haemochrom GmbH, Essen, Germany). Research samples were available of DX-9065a ((+)-(2S)-2-[4-[[3S)-1-acetimidoyl-3-pyrrodinyl]oxy]phenyl]-3-[7-amidino-2-naphthyl]propanic acid, Daiichi Pharmaceutical Company Ltd., Tokyo, Japan), and Otamixaban (2-(R)-(3-carbamimidoylbenyzyl)-3-(R)-[4-(1-oxypyridin-4-yl)benzoylamino]-butyric acid-methylester, Sanofi-Aventis GmbH, Frankfurt, Germany), both of which are undergoing clinical tests. In order to examine the inhibitory action of these exemplarily used inhibitors on the blood coagulation factors plasma-kallikrein, VIIa, Xa, XIa and XIIa, the Ki values of the respective enzyme-inhibitor complexes were determined.
(§2) The enzymes were produced by Haemochrom Diagnostica GmbH (Essen, D) and were dissolved in 0.154 mol/l NaCl. The substrates (Pentapharm AG, Basel, CH) were dissolved in H2O and the inhibitor was dissolved in the above-mentioned tris buffer. The following substrates were used for the individual enzymes:
(§3) 200 μl of inhibitor solution were mixed with 25 μl of substrate for the determination and the reaction was started by the addition of 50 μl of enzyme. After a reaction time of 3-5 mins. 25 μl of acetic acid (50%) were added and the extinction was measured at 405 nm with a microplate reader (iEMS Reader MF 12401, Labsystems, Helsinki, Finland). The evaluation was carried out graphically according to Dixon (Biochem. J., 55, 170, 1953).
(§4) The enzymes were produced by Haemochrom Diagnostica GmbH (Essen, D), and only thrombin was manufactured in our own laboratory according to Walsmann (Pharmazie 23, 401-402, 1968). All the enzymes were dissolved in 0.154 mol/l NaCl. The substrates (Pentapharm AG, Basel, CH) were dissolved in H2O and the inhibitor was dissolved in the above-mentioned tris buffer. The following substrates were used for the individual enzymes:
(§5) 200 μl of inhibitor solution were mixed with 25 μl of substrate for the determination and the reaction was started by the addition of 50 μl of enzyme. After a reaction time of 3-5 mins. 25 μl of acetic acid (50%) were added and the extinction was measured at 405 nm with a microplate reader (iEMS Reader MF 1401, Labsystems, Helsinki, Finland). The evaluation was carried out graphically according to Dixon (Biochem. J., 55, 170, 1953).

The target of another test is T2, Factor XIa (Homo sapiens, UniProt P03951).
T2 construct: purchased Haemochrom Diagnostica GmbH (Essen, D)
T2 sequence (P03951 388-625 limits assumed): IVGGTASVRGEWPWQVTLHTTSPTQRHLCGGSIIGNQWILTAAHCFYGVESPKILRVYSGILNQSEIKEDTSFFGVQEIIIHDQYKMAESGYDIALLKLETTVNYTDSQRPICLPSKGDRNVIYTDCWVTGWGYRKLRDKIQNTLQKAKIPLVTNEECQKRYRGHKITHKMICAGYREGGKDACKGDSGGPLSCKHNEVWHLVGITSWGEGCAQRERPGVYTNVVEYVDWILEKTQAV
T2 sequence (P03951 19-387 partner limits assumed): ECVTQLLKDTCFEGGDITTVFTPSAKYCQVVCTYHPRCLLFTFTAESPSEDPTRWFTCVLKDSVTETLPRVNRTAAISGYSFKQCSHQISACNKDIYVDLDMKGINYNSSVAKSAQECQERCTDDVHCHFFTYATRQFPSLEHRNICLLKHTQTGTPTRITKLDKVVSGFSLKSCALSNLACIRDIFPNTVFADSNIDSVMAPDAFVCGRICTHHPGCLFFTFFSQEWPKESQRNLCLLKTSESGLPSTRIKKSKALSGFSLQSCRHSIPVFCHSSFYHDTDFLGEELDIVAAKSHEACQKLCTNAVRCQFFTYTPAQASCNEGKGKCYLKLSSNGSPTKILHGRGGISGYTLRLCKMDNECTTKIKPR
The test can be described thus: Determination of Ki values, chromogenic substrate, Dixon evaluation: Factor XIa. It counts as biochemical. Conditions: 25° C., tris buffer pH 8.0, substrate H-D-Lys(Cbo)-Pro-Arg-pNA.
Source text: as §1, §2, §3, §4, §5

The next test addresses T3, Factor XIIa (Homo sapiens, UniProt P00748).
T3 construct: purchased Haemochrom Diagnostica GmbH (Essen, D)
T3 sequence (P00748 373-615 limits assumed): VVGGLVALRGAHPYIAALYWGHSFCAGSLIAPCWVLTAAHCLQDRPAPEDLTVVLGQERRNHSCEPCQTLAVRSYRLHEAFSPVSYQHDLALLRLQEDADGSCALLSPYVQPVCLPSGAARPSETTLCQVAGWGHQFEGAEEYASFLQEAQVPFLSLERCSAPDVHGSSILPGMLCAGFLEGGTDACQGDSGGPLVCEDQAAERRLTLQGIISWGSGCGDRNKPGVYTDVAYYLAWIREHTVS
Briefly: Determination of Ki values, chromogenic substrate, Dixon evaluation: Factor XIIa. It counts as biochemical. Conditions: 25° C., tris buffer pH 8.0, substrate H-D-HHT-Gly-Arg-pNA.
Source text: as §1, §2, §3, §4, §5

The target in a further test is T4, Factor Xa (Homo sapiens, UniProt P00742).
T4 construct: purchased Haemochrom Diagnostica GmbH (Essen, D)
T4 sequence (P00742 235-488 limits assumed): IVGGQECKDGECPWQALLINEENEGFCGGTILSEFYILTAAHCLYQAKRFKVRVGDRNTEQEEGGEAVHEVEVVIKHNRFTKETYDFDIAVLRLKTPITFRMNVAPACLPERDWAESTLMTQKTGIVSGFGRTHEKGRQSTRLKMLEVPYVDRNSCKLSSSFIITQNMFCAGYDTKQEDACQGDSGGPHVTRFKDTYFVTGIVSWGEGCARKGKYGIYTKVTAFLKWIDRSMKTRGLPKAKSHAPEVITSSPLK
T4 sequence (P00742 41-179 partner limits assumed): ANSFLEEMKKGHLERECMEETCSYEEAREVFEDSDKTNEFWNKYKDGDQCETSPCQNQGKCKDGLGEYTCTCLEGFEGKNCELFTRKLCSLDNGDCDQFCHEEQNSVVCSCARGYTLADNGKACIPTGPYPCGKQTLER
Briefly: Determination of Ki values, chromogenic substrate, Dixon evaluation: Factor Xa. It counts as biochemical. Conditions: 25° C., tris buffer pH 8.0, substrate CH3OCO-D-Cha-Gly-Arg-pNA.

A further test deals with T5, Plasma-kallikrein (Homo sapiens, UniProt P03952).
T5 construct: purchased Haemochrom Diagnostica GmbH (Essen, D)
T5 sequence (P03952 391-638 limits assumed): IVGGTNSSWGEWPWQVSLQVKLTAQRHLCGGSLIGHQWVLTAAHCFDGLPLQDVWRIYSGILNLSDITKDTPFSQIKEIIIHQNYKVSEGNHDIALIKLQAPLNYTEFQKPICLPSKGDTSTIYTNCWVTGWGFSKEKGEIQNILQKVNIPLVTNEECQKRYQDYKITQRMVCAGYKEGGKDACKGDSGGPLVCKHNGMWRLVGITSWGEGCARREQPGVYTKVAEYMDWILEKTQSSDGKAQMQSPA
T5 sequence (P03952 20-390 partner limits assumed): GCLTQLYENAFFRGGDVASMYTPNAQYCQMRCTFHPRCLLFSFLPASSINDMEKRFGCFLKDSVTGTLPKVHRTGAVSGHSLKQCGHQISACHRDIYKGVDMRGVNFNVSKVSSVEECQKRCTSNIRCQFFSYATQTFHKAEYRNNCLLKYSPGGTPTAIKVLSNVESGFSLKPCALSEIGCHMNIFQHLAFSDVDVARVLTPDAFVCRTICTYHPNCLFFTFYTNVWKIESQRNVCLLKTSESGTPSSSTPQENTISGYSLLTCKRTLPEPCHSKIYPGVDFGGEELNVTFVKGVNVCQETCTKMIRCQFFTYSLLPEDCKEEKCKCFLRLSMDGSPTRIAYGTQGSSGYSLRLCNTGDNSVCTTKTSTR
Briefly: Determination of Ki values, chromogenic substrate, Dixon evaluation: plasma-kallikrein. Conditions: 25° C., tris buffer pH 8.0, substrate Bz-Pro-Phe-Arg-pNA; read-out: Ki PK (plasma-kallikrein). It counts as biochemical.
Source text: In a particularly preferred embodiment the compound according to Formula (I) inhibits not only the blood coagulation factor XA but also thrombin and/or plasma kallikrein. […] Here too the Ki value stands for the dissociation constant of the respective enzyme-inhibitor complex. The determination of the Ki values of the inhibitors vis-a-vis thrombin and plasma kallikrein is preferably carried out in a similar manner to the determination, described above, of the Ki values of the inhibitors vis-a-vis the coagulation factor Xa, but in this case CH3SO2-D-HHT-gly-arg-pNA (with HHT=hexahydrothyrosin, and pNA=para-nitroaniline; sold under the commercial name Pefachrome tPA) are used as substrates in the case of thrombin and bz-pro-phe-arg-pNA (with bz=[…], and pNA=para-nitroaniline; sold under the commercial name Chromozym PK) in the case of plasma-kallikrein.
as §1, §2, §3, §4, §5

In another test the test system is human vein blood. The test can be described thus: Storage of human vein blood after anticoagulation with inhibitor (F1+2 immunoassay). The protocol: In the sense of the invention anticoagulation means that the re-formation of thrombin is inhibited in the sampled blood. According to the invention thrombin re-formation is inhibited when no more than 1 nM of thrombin is re-formed in the sampled blood. As described above, the activation of prothrombin to thrombin represents an essential step in the blood coagulation cascade. In this case the prothrombin fragment 1+2 (F1+2) is released in equivalent quantities. It is therefore possible to quantify the thrombin actually formed by determining the fragment produced, thus enabling the prothrombin fragment F1+2 to be used as an indirect marker of an activation of prothrombin to thrombin. The concentration of the prothrombin fragment F1+2 formed may be determined immunologically, for example, with commercial enzyme immunoassays (for example Enzygnost F1+2 micro, Dade Behring GmbH, Marburg).
According to the invention anticoagulation therefore means that no more than 1 nM of prothrombin fragment F1+2 is newly formed in the blood after its sampling. […] Without suitable treatment of the blood to prevent coagulation there is an increase in the concentration of the prothrombin fragment F1+2 in this example to well over 1.3 nM, within a few minutes, due to the plasmatic coagulation, i.e. the blood coagulates.
In this experiment it was determined how long human vein blood can be stored without the formation of thrombin or activation of thrombocytes.
For this purpose blood (9 parts) sampled from a patient was mixed with inhibitor solution (0.05 mM, 0.5 mM or 5 mM in physiological NaCl solution; 1 part). Some of the blood was stored at 25° C., the remainder in the refrigerator at 4° C. The quantity of thrombin formed was determined immunologically during storage based on the formation of the prothrombin fragment F1+2 (Enzygnost F1+2 micro, Dade Behring GmbH, Marburg). […] In this case it is irrelevant whether the blood samples were kept at room temperature (approx. 25° C.) or at 4° C.
For this purpose blood (9 parts) sampled from a patient was mixed with inhibitor solution (0.05 mM, 0.5 mM or 5 mM in physiological NaCl solution; 1 part) and stored at room temperature (about 22±2° C.). The quantity of thrombin formed was determined immunologically during storage based on the formation of the prothrombin fragment F1+2 (Enzygnost F1+2 micro, Dade Behring GmbH, Marburg). It was shown that BAPA′ is capable of keeping anticoagulated blood uncoagulated at a concentration in the blood of 500 μM or 50 μM for more than 48 hours (Table 4). At a concentration of 5 μM BAPA′ prevents coagulation for more than 8 hours.

Test [1] has as its system thrombocytes. The test can be described thus: Induced aggregation of thrombocytes (Born in PRP, impedance full blood aggregometry) after anticoagulation, Example 4. Conditions: 24 hours after sampling; ADP, collagen, arachidonic acid. It counts as cell-based, human. The protocol:
(§6) For this purpose blood was taken within 1 hour from 12 healthy subjects. 1 aliquot of each of the 12 blood samples was anticoagulated with citrate and 1 other aliquot of the 12 blood samples was anticoagulated with a direct inhibitor of the blood coagulation factor Xa. For this purpose 9 parts of blood were mixed with 1 part of citrate (0.106 mol/l) or 1 part of inhibitor solution in a suitable concentration. Platelet-rich plasma (PRP) was manufactured by centrifuging at 164×g over 10 minutes. The thrombocytes in PRP were activated by induced aggregation according to Born with 5 μmols/l of ADP, 2 μg/ml of collagen and 0.5 mmol/l of arachidonic acid. Impedance full blood aggregometry was carried out with the Multiplate aggregometer and with 6.5 μmols/l of ADP, 3.2 μg/ml of collagen and 0.5 mmol/l of arachidonic acid. The analyses were conducted 1, 2, 3, 4, 5, 10 and 24 hours after blood sampling.

Test [2] deals with thrombocytes. Briefly: Thrombocyte propagation on plastic object carriers, Example 4. It counts as cell-based, human. The note with it: PRP, 24 hours after blood sampling. The method, then: as §6
On the contrary, less than 10% of the thrombocytes in RPR anticoagulated with citrate were still propagated 24 hours after blood sampling.

The test system of a further test is thrombin formation. Briefly: Inhibition of thrombin formation (prothrombin fragment F1+2) in hirudin-anticoagulated plasma after activation by kaolin. It counts as biochemical, human. The note with it: inhibitor 100 μM, 37° C. The method, then:
In this example thrombin formation was activated in plasma anticoagulated with hirudin by the addition of kaolin and the ability of the inhibitors to inhibit thrombin formation was examined.
Blood sampled from a patient was initially anticoagulated by means of the thrombin inhibitor hirudin. For this purpose 9 parts of blood were mixed with 1 part of hirudin solution (recombinant hirudin HBW 023, Hoechst, Frankfurt, 2000 E/ml of physiological NaCl solution), then centrifuged for 10 minutes at 1300 revolutions per minute (rpm). 900 μl of the plasma anticoagulated with hirudin, present in excess, were mixed in polypropylene tubes with 50 μl of inhibitor solution or 0.9% NaCl solution and 50 μl kaolin suspension (from APTT-Test from Roche Diagnostics, diluted 1:250 before use with physiological NaCl solution), and incubated at 37° C. with light shaking. In this case kaolin acts as a non-physiological surface which activates the blood coagulation thereby finally stimulating thrombin formation. At certain times the quantity of the thrombin formed was determined immunologically on the basis of the formation of the prothrombin fragment F1+2 (Enzygnost F1+2 micro, Dade Behring GmbH, Marburg). This determination is based on an enzyme immunoassay according to the sandwich principle. For this purpose aliquot volumes (600 μl) were anticoagulated at certain times with 0.1 M EDTA (40 μl) and kept at −20° C. To determine the concentration of the prothrombin fragment F1+2 50 μl of plasma (if necessary diluted with PBS, phosphate-buffered saline) were incubated with monoclonal antibodies against the human prothrombin fragment F1+2, which were fixed on a microtitre plate included in the test kit. After a washing stage with PBS, which was used to remove sample material not bound by the antibodies, antibodies conjugated with peroxidase were incubated against human prothrombin binding to the free F1+2 determinants. […] This was then determined photometrically at a wavelength of 492 nm. […]

[3] abbreviates: 25° C., concentration in the blood 50 μM.
Where [4] appears, read: 25° C., concentration in the blood 500 μM.

The source of these data is patent publication US8129547B2, “Anticoagulation of human blood ex vivo” (priority 2006, dated 2012).

Structures can show the parent of a compound that is named as a salt.

As for `N=C(N)NCCC[C@@H](NS(=O)(=O)Cc1ccccc1)C(=O)N1CCC[C@H]1C(=O)NCc1ccc(C(=N)N)cc1` [BAPA′, benzylsulphonyl-D-arginyl-prolyl-4-amidinobenzylamide], the figures for the inhibitory constant (Ki) on Factor VIIa, at Factor XIa and on Factor XIIa were 830 nM, 27 nM and 130 nM, respectively.
For `N=C(N)NCCC[C@@H](NS(=O)(=O)Cc1ccccc1)C(=O)NCC(=O)NCc1ccc(C(=N)N)cc1` [CJ-FXa, benzylsulphonyl-D-arginyl-glycyl-4-amidinobenzylamide], the Ki on Factor Xa turned out to be 3.5 nM; on Plasma-kallikrein, 84 nM; on Factor VIIa, 9600 nM; on Factor XIa, 800 nM; at Factor XIIa it was 350 nM. Besides, the Anticoagulation time in the test on human vein blood (4° C., concentration in the blood 500 μM) is more than 48 h; in the test with human vein blood (setting [3]), “approx. 24 h”; with human vein blood (25° C., concentration in the blood 50 μM, listed as CJ-Fxa) it was 12 to 24 h; in the test with human vein blood (setting [4]), more than 48 h.
With `CC(=N)N1CC[C@H](Oc2ccc([C@H](Cc3ccc4ccc(C(=N)N)cc4c3)C(=O)O)cc2)C1` [DX-9065a], the Ki on Plasma-kallikrein amounted to 530 nM; on Factor VIIa, 92000 nM; at Factor XIa, 2300 nM; at Factor XIIa, 340 nM. For the same compound, the Anticoagulation time lay within 5 to 7 h in the test on human vein blood (setting [3]) and 7 to 12 h in the test with human vein blood (setting [4]).
With `O=C(O)CC(O)(CC(=O)O)C(=O)O` [citrate, trisodium citrate], the “induced aggregation relative to the initial value” with thrombocytes [1] is recorded as 20 to 30 % of the initial value. Further, the “thrombocytes showing normal propagation on plastic object carriers” value in the test with thrombocytes [2] was “less than 10%”.
For “benzylsulphonyl-D-seryl-carbobenzoxylsyl-4-amidinobenzylamide [CJ-PK]”, the Ki at Factor Xa stood at 2900 nM; on Plasma-kallikrein, 3.5 nM; on Factor VIIa, 3800 nM; at Factor XIa, 250 nM; at Factor XIIa, 12000 nM. Further, in the test with thrombin formation, the “suppression of thrombin formation after kaolin activation” value is “suppress thrombin formation effectively”.

As a reminder, the Ki is a dissociation constant, usually derived from enzyme kinetics or from competition with a known ligand.
